The results in this text go back to patent US10584115B2, “Substituted pyridine and pyrazine BMI-1 inhibitors” (PTC Therapeutics, Inc., priority 2013, dated 2020).

Where two headings read alike, the source gives them in different places.

The test system of one series is Bmi-1 protein. The series is described as follows: Sandwich ELISA Assay (Bmi-1 protein level in HT-1080 cells after compound treatment). The series is classed as cell-based. In a few lines: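 HT-1080 cells exposed to compounds for 40–48 h at 37 °C (0.5% DMSO final), then lysed. Bmi-1 in lysates measured by sandwich ELISA (mouse monoclonal capture, rabbit anti-Bmi-1 detection, HRP anti-rabbit, TMB), read at OD450 with OD570 reference against a recombinant Bmi-1 standard curve (0–8000 pg/mL).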
Background: An ELISA detects its analyte on a solid surface through an enzyme-linked reagent.

The mark [1] stands for this setting: Table 1, Bmi-1 sandwich ELISA, read-out: ELISA EC50 value for Bmi-1 protein.
The mark [2] stands for this setting: read-out: ELISA EC50 value for Bmi-1 protein, Table 1, Bmi-1 sandwich ELISA.

Broadly, the EC50 is the concentration at which the effect is half-maximal. What is called melting point is the temperature of the solid-liquid transition.

As to `CCn1nc(C(F)(F)F)c(-c2cncc(Nc3ccc(OC(F)(F)F)cc3)n2)c1C` [compound 331, 6-[1-ethyl-5-methyl-3-(trifluoromethyl)-1H-pyrazol-4-yl]-N-[4-(trifluoromethoxy)phenyl]pyrazin-2-amine], the melting point lay in the range of 128 to 129 °C. In the series with Bmi-1 protein (setting [1]), the EC50 was in the range of 100 to 3000 nM.

`Cc1nn(C)c(C)c1-c1cncc(Nc2ccc(C(F)(F)F)cc2)n1` [compound 128, N-[4-(trifluoromethyl)phenyl]-6-(1,3,5-trimethyl-1H-pyrazol-4-yl)pyrazin-2-amine] gave a melting point of 201 to 202 °C. In the series with Bmi-1 protein (setting [1]), the EC50 was in the range of 1 to 10 nM.

`N#Cc1cc(Nc2ccc(OC(F)F)cc2)nc(-n2c(C3CC3)nc3c(F)cc(F)cc32)c1` [compound 475, 2-(2-cyclopropyl-4,6-difluoro-1H-benzimidazol-1-yl)-6-{[4-(difluoromethoxy)phenyl]amino}pyridine-4-carbonitrile] gave a melting point of 168 to 170 °C. In the series on Bmi-1 protein (setting [1]), the concentration for a half-maximal effect (EC50) is 10 to 100 nM.

Compound `Cc1nc2ccc(F)cn2c1-c1cc(C#N)cc(Nc2ccccc2)n1` [compound 646, 2-(6-fluoro-2-methylimidazo[1,2-a]pyridin-3-yl)-6-(phenylamino)pyridine-4-carbonitrile] gave a melting point of 176 to 178 °C. Moreover, the EC50 with Bmi-1 protein (setting [1]) fell in the range of 100 to 3000 nM.

Compound `FC(F)(F)Oc1ccc(Nc2cncc(-c3cccc4nc(C5CC5)cn34)n2)cc1` [compound 87, 6-(2-cyclopropylimidazo[1,2-a]pyridin-5-yl)-N-[4-(trifluoromethoxy)phenyl]pyrazin-2-amine] registered a melting point of 225 to 227 °C. In addition, the EC50 in the series with Bmi-1 protein (setting [1]) fell in the range of 100 to 3000 nM.

`FC(F)(F)c1nc2ccccn2c1-c1cncc(Nc2ccc(C3CC3)cc2)n1` [compound 165, N-(4-cyclopropylphenyl)-6-[2-(trifluoromethyl)imidazo[1,2-a]pyridin-3-yl]pyrazin-2-amine] showed a melting point of 317 to 320 °C. Also, in the series with Bmi-1 protein (setting [1]), the 50% effective concentration (EC50) lay within 1 to 10 nM.

As to `Cc1nn(Cc2ccccn2)c(C)c1-c1cncc(Nc2ccc(C(F)(F)F)cc2)n1` [compound 400, 6-[3,5-dimethyl-1-(pyridin-2-ylmethyl)-1H-pyrazol-4-yl]-N-[4-(trifluoromethyl)phenyl]pyrazin-2-amine], the melting point was 50 to 51 °C. The EC50 in the series on Bmi-1 protein (setting [1]) fell in the range of 100 to 3000 nM.

`Cc1noc(C)c1-c1cncc(Nc2ccc3c(c2)OCO3)n1` [compound 639, N-(1,3-benzodioxol-5-yl)-6-(3,5-dimethyl-1,2-oxazol-4-yl)pyrazin-2-amine] displayed a melting point of 185 to 186 °C. Besides, the EC50 in the series with Bmi-1 protein (setting [1]) is 100 to 3000 nM.

`COc1ccc(Nc2cncc(-c3c(C)noc3C)n2)cn1` [compound 638, 6-(3,5-dimethyl-1,2-oxazol-4-yl)-N-(6-methoxypyridin-3-yl)pyrazin-2-amine] returned a melting point of 173 to 174 °C. Further, the EC50 in the series on Bmi-1 protein (setting [1]) lay in the range of 100 to 3000 nM.

`Cc1nc2ncc(F)cn2c1-c1cc(C#N)cc(Nc2ccc(C(F)(F)F)cc2)n1` [compound 437, 2-(6-fluoro-2-methylimidazo[1,2-a]pyrimidin-3-yl)-6-{[4-(trifluoromethyl)phenyl]amino}pyridine-4-carbonitrile] gave a melting point of 290 to 292 °C. Moreover, the EC50 in the series on Bmi-1 protein (setting [1]) is 1 to 10 nM.

`Fc1ccc2nc(C3CC3)c(-c3cncc(Nc4ccc(OC(F)F)c(F)c4)n3)n2c1` [compound 338, 6-(2-cyclopropyl-6-fluoroimidazo[1,2-a]pyridin-3-yl)-N-[4-(difluoromethoxy)-3-fluorophenyl]pyrazin-2-amine] yielded a melting point of 173 to 175 °C. The EC50 in the series on Bmi-1 protein (setting [1]) lay within 1 to 10 nM.

For the compound `Cc1nn(CCO)c(C)c1-c1cncc(Nc2ccc(C(F)(F)F)cc2)n1` [compound 335, 2-[3,5-dimethyl-4-(6-{[4-(trifluoromethyl)phenyl]amino}pyrazin-2-yl)-1H-pyrazol-1-yl]ethanol], the melting point fell in the range of 172 to 174 °C. For the same compound, the concentration giving a half-maximal response (EC50) in the series with Bmi-1 protein (setting [1]) lay within 1 to 10 nM.

Turning to `COc1ccc(Nc2cccc(-c3c(C(F)(F)F)nc4ccc(OC)cn34)n2)cc1` [compound 104, N-(4-methoxyphenyl)-6-[6-methoxy-2-(trifluoromethyl)imidazo[1,2-a]pyridin-3-yl]pyridin-2-amine], the melting point was in the range of 139 to 140 °C. The EC50 with Bmi-1 protein (setting [1]) is 10 to 100 nM.

Turning to `CCn1nc(C)c(-c2cncc(Nc3ccc(C(F)(F)F)cc3)n2)c1C` [compound 175, 6-(1-ethyl-3,5-dimethyl-1H-pyrazol-4-yl)-N-[4-(trifluoromethyl)phenyl]pyrazin-2-amine], the melting point is 78 to 79 °C. In addition, the EC50 in the series on Bmi-1 protein (setting [2]) was in the range of 1 to 10 nM.

In turn, `Cc1nc2ccc(F)cn2c1-c1cncc(Nc2cccc(F)c2)n1` [compound 595, 6-(6-fluoro-2-methylimidazo[1,2-a]pyridin-3-yl)-N-(3-fluorophenyl)pyrazin-2-amine] came in with a melting point of 270 to 273 °C. For the same compound, the EC50 in the series on Bmi-1 protein (setting [1]) was in the range of 10 to 100 nM.

In the case of `Cc1nn(C)c(C)c1-c1cc(C#N)cc(Nc2ccc(C(F)(F)F)cc2)n1` [compound 263, 2-{[4-(trifluoromethyl)phenyl]amino}-6-(1,3,5-trimethyl-1H-pyrazol-4-yl)pyridine-4-carbonitrile], the melting point fell in the range of 182 to 183 °C. Further, the EC50 with Bmi-1 protein (setting [1]) fell in the range of 1 to 10 nM.

`Cc1nc2ccc(F)cn2c1-c1cncc(Nc2ccccc2F)n1` [compound 598, 6-(6-fluoro-2-methylimidazo[1,2-a]pyridin-3-yl)-N-(2-fluorophenyl)pyrazin-2-amine] registered a melting point of 218 to 220 °C. For the same compound, the concentration giving a half-maximal response (EC50) in the series with Bmi-1 protein (setting [1]) lay in the range of 100 to 3000 nM.

For the compound `Cc1nc2ccc(F)cn2c1-c1cncc(Nc2ccc(F)cc2)n1` [compound 591, 6-(6-fluoro-2-methylimidazo[1,2-a]pyridin-3-yl)-N-(4-fluorophenyl)pyrazin-2-amine], the melting point fell in the range of 208 to 210 °C. Besides, the half-maximal effective concentration (EC50) in the series with Bmi-1 protein (setting [1]) lay within 100 to 3000 nM.

Take `COc1cccc(Nc2cc(C#N)cc(-c3c(C)nc4ccc(F)cn34)n2)c1` [compound 650, 2-(6-fluoro-2-methylimidazo[1,2-a]pyridin-3-yl)-6-[(3-methoxyphenyl)amino}pyridine-4-carbonitrile]: the melting point was in the range of 247 to 250 °C. Besides, in the series with Bmi-1 protein (setting [1]), the EC50 was 100 to 3000 nM.

In the case of `Cc1cn2c(-c3cc(C#N)cc(Nc4ccc(C(F)(F)F)cc4)n3)c(C3CC3)nc2c(C)n1` [compound 491, 2-(2-cyclopropyl-6,8-dimethylimidazo[1,2-a]pyrazin-3-yl)-6-{[4-(trifluoromethyl)phenyl]amino}pyridine-4-carbonitrile], the melting point lay within 150 to 152 °C. Further, the EC50 with Bmi-1 protein (setting [1]) was in the range of 100 to 3000 nM.

As for `Fc1cc(F)c2nc(C3CC3)n(-c3cncc(Nc4ccc(C(F)(F)F)nc4)n3)c2c1` [compound 464, 6-(2-cyclopropyl-4,6-difluoro-1H-benzimidazol-1-yl)-N-[6-(trifluoromethyl)pyridin-3-yl]pyrazin-2-amine], the melting point was in the range of 267 to 270 °C. Also, in the series with Bmi-1 protein (setting [1]), the half-maximal effective concentration (EC50) fell in the range of 10 to 100 nM.

The compound `N#Cc1cc(Nc2ccc(OC(F)F)c(F)c2)nc(-c2c(C3CC3)nc3ccc(F)cn23)c1` [compound 349, 2-(2-cyclopropyl-6-fluoroimidazo[1,2-a]pyridin-3-yl)-6-{[4-(difluoromethoxy)-3-fluorophenyl]amino}pyridine-4-carbonitrile] had a melting point of 185 to 186 °C. Moreover, the EC50 in the series with Bmi-1 protein (setting [1]) lay in the range of 10 to 100 nM.

In the case of `CCc1nn(C)c(CC)c1-c1cncc(Nc2ccc(OC(F)(F)F)cc2)n1` [compound 334, 6-(3,5-diethyl-1-methyl-1H-pyrazol-4-yl)-N-[4-(trifluoromethoxy)phenyl]pyrazin-2-amine], the melting point was in the range of 122 to 123 °C. Also, the EC50 with Bmi-1 protein (setting [1]) was 10 to 100 nM.

Turning to `CCc1nc2ccc(F)cc2n1-c1cncc(Nc2cccc(Cl)c2)n1` [compound 625, N-(3-chlorophenyl)-6-(2-ethyl-6-fluoro-1H-benzimidazol-1-yl)pyrazin-2-amine], the melting point lay in the range of 192 to 195 °C. Moreover, in the series on Bmi-1 protein (setting [1]), the EC50 was 100 to 3000 nM.

The compound `Cc1nn(C)c(C)c1-c1cc(C#N)cc(Nc2ccc(OC(F)F)cc2)n1` [compound 264, 2-{[4-(difluoromethoxy)phenyl]amino}-6-(1,3,5-trimethyl-1H-pyrazol-4-yl)pyridine-4-carbonitrile] registered a melting point of 144 to 145 °C. Moreover, the concentration giving a half-maximal response (EC50) in the series on Bmi-1 protein (setting [1]) was in the range of 1 to 10 nM.

As to `Cc1cn2c(-c3cc(C#N)cc(Nc4ccc(C(F)(F)F)cc4)n3)c(C)nc2c(C)n1` [compound 487, 2-{[4-(trifluoromethyl)phenyl]amino}-6-(2,6,8-trimethylimidazo[1,2-a]pyrazin-3-yl)pyridine-4-carbonitrile], the melting point was in the range of 237 to 238 °C. Also, in the series with Bmi-1 protein (setting [1]), the EC50 lay in the range of 10 to 100 nM.

Compound `Fc1cc(F)c2nc(C3CC3)n(-c3cncc(Nc4ccc(C(F)(F)F)cc4)n3)c2c1` [compound 461, 6-(2-cyclopropyl-4,6-difluoro-1H-benzimidazol-1-yl)-N-[4-(trifluoromethyl)phenyl]pyrazin-2-amine] returned a melting point of 247 to 249 °C. Besides, the concentration for a half-maximal effect (EC50) in the series with Bmi-1 protein (setting [2]) is 10 to 100 nM.

As for `Cc1nc2ccc(F)cc2n1-c1cncc(Nc2ccc(OC(F)(F)F)cc2)n1` [compound 230, 6-(6-fluoro-2-methyl-1H-benzimidazol-1-yl)-N-[4-(trifluoromethoxy)phenyl]pyrazin-2-amine], the melting point was in the range of 215 to 217 °C. Besides, in the series on Bmi-1 protein (setting [1]), the concentration giving a half-maximal response (EC50) lay in the range of 10 to 100 nM.

Compound `Fc1ccc2nc(C(F)F)c(-c3cncc(Nc4ccc(OC(F)F)nc4)n3)n2c1` [compound 479, N-[6-(difluoromethoxy)pyridin-3-yl]-6-[2-(difluoromethyl)-6-fluoroimidazo[1,2-a]pyridin-3-yl]pyrazin-2-amine] registered a melting point of 225 to 227 °C. In addition, in the series with Bmi-1 protein (setting [1]), the EC50 fell in the range of 1 to 10 nM.

Regarding `FC(F)(F)c1ccc(Nc2cncc(-c3c(C4CC4)nc4ccccn34)n2)cc1` [compound 129, 6-(2-cyclopropylimidazo[1,2-a]pyridin-3-yl)-N-[4-(trifluoromethyl)phenyl]pyrazin-2-amine], the melting point was 215 to 217 °C. Also, the concentration giving a half-maximal response (EC50) with Bmi-1 protein (setting [2]) fell in the range of 1 to 10 nM.
